Measurements published in ChEMBL document CHEMBL3137440, “DNDi T. cruzi fenarimol series dataset from which preclinical candidate EPL-BS0967 was identified (see also related datasets: CHEMBL3137386 and CHEMBL2448688)”.
≈ marks a conversion by molar mass, not a printed value. Where “and” joins values, the source holds several entries; their conditions need not be identical. Equal values may be shown once.

Tests used:
[1] = test system: Trypanosoma cruzi; assay: (§1) DNDI: Chagas in Vitro; format: functional, organism-based, Tulahuen C4 (LacZ)
[2] = test system: Trypanosoma cruzi; assay: as §1; format: functional, Tulahuen C4 (LacZ)
[3] = (§2) DNDI: Cytotoxicity against L-6 rat myoblasts from skeletal musclE; conditions: L6 rat skeletal muscle myoblasts, IC50
[4] = (§3) DNDI: Lipophilicity (gLogD) at pH 3; conditions: buffer
[5] = DNDI: Lipophilicity (gLogD) at pH 7.4; conditions: buffer
[6] = DNDI: Metabolism; format: ADME, Microsome; conditions: rat, microsomes; for hepatic extraction ratio: read-out: EH
[7] = DNDI: Solubility in 0.01M HCl at pH 2 determined by nephelometry
[8] = (§4) DNDI: Solubility in phosphate buffer at pH 6.5 determined by nephelometry
[9] = molecular target: T1, Cytochrome P450 3A4 (Homo sapiens, UniProt P08684)
T1 sequence (P08684 whole entry): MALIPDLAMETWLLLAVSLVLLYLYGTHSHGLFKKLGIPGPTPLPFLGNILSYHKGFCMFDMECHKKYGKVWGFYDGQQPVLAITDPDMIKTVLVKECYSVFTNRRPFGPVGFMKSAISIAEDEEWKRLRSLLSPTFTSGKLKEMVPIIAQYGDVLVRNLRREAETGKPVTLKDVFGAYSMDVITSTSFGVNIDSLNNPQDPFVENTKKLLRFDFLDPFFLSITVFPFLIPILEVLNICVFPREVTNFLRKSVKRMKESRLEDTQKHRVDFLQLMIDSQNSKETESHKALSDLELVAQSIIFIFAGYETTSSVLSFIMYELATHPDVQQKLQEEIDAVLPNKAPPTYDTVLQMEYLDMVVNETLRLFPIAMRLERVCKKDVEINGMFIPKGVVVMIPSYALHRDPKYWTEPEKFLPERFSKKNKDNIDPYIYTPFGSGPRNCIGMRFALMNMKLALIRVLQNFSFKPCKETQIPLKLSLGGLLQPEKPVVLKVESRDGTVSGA

[10] = in vitro; conditions: human, microsomes
[11] = in vitro; conditions: human, microsomes; remark: listed apart in the source
[12] = in vitro; conditions: human, microsomes; remark: listed apart in the source
[13] = molecular target: T1, Cytochrome P450 3A4; remark: listed apart in the source
[14] = test system: Trypanosoma brucei rhodesiense; assay: DNDI: HAT in Vitro; format: functional, organism-based; conditions: ATCC 30027
[15] = as §3; format: physicochemical; conditions: buffer
[16] = as §4; format: physicochemical
[17] = test system: Leishmania donovani; assay: DNDI: Inhibition of formation of Leishmania donovani; format: functional, MHOM/ET/67/L82; parameters: concentration or dose not given beside the values
[18] = test system: L6; assay: as §2
[19] = molecular target: T1, Cytochrome P450 3A4; assay: DNDI: CYP Inhibition; format: ADME
[20] = Trypanosoma cruzi, Tulahuen C4 (LacZ)

Row | Compound | IC50 [1, 20] | IC90 [2, 20] | IC50 [3] | chromatographic logD ([4]; pH 3) | chromatographic logD ([5]; pH 7.4) | half-life [6] | microsomal CLint [6] | hepatic extraction ratio [6] | solubility kinetic [7] | solubility kinetic [8] | IC50 [9] | half-life [10] | hepatic extraction ratio [11] | microsomal CLint [12] | other results
1 | Cc1ncsc1C(=O)N1CCC(N(c2ccc(C(F)(F)F)cc2)c2cccnc2)CC1 | 6.93 nM | 11 nM | 67400 nM | 2.1 | 3.3 | 28.1 min | 61.8 µL/min/mg | 0.67 | > 100 µg/mL | 12.5 µg/mL (≈ 28 µM) | 2900 nM | 16.6 min | 0.85 | 105 µL/min/mg | 
2 | N#Cc1ccc(N(c2cccnc2)C2CCN(c3ccc(F)c(F)c3)CC2)cc1 | 1.8 nM | 3 nM | > 100000 nM | 4.2 | 4.4 |  |  |  | 6.3 µg/mL (≈ 16.1 µM) | < 1.6 µg/mL |  | 23.5 min | 0.8 | 73.7 µL/min/mg | IC50 [13]: 4300 nM
3 | FC(F)(F)c1ccc(N(c2cncnc2)C2CCN(c3ccc(C(F)(F)F)cn3)CC2)cc1 | 3.65 nM | 9.15 nM | 93200 nM |  |  |  |  |  |  |  |  | 56 min | 0.63 | 30.9 µL/min/mg | IC50 [1]: 5.4 nM and 5 nM; IC90 [2]: 10 nM; IC50 [14]: > 10000 nM; chromatographic logD [15]: 5; solubility kinetic [16]: < 1.6 µg/mL
4 | CN(C)S(=O)(=O)c1cccc(N2CCC(N(c3ccc(C(F)(F)F)cc3)c3cccnc3)CC2)c1 | 15 nM | 31 nM | 10400 nM | 4.4 | 4.7 |  |  |  | 25 µg/mL (≈ 49.5 µM) | < 1.6 µg/mL |  | 6.7 min | 0.94 | 258 µL/min/mg | IC50 [13]: 7000 nM
5 | CC(C)(C)C(=O)N1CCC(N(c2ccc(C(F)(F)F)cc2)c2cccnc2)CC1 | 2.66 nM | 7.59 nM |  | 3.1 | 4.2 | 13.2 min | 131 µL/min/mg | 0.81 | > 100 µg/mL | 6.3 µg/mL (≈ 15.5 µM) | 1900 nM | 13.8 min | 0.88 | 126 µL/min/mg | 
6 | N#Cc1ccc(N2CCC(N(c3ccc(C(F)(F)F)cc3)c3cccnc3)CC2)cc1 | 7 nM | 13 nM | > 100000 nM | 4.3 | 4.7 |  |  |  | 50 µg/mL (≈ 118 µM) | < 1.6 µg/mL |  | 15.5 min |  | 112 µL/min/mg | % inhibition [17]: 51.5%
7 | O=C(c1ccc(F)cc1)N1CCC(N(c2ccc(C(F)(F)F)cc2)c2cccnc2)CC1 | 15 nM | 28 nM | 54300 nM | 3.1 | 4.1 | 16.6 min | 105 µL/min/mg | 0.77 | > 100 µg/mL | 3.1 µg/mL (≈ 6.99 µM) | 4400 nM | 13.2 min | 0.88 | 131 µL/min/mg | IC50 [1]: 7.83 nM; IC90 [2]: 20.7 nM; IC50 [18]: 44400 nM
8 | CCC(C(C)O)N1CCC(N(c2ccc(C(F)(F)F)cc2)c2cccnc2)CC1 (stereo unspecified) | 61 nM | > 100 nM | 49600 nM |  |  |  |  |  | > 100 µg/mL | 25 µg/mL (≈ 61.4 µM) |  |  |  |  | chromatographic logD ([4]; pH 3, logD): 1.6; chromatographic logD ([5]; pH 7.4, logD): 4.3; IC50 [13]: 17000 nM; half-life ([10]; t (1 / 2)): 35.8 min; hepatic extraction ratio ([11]; EH): 0.73; microsomal CLint ([12]; CLint): 48.4 µL/min/mg
9 | O=C(C1CC1)N1CCC(N(c2ccc(Cl)cc2)c2cccnc2)CC1 | 5.82 nM | 13.4 nM | 78200 nM | 1.6 | 3.4 | 10.1 min | 171 µL/min/mg | 0.85 | > 100 µg/mL | 12.5 µg/mL (≈ 35.1 µM) |  | 24 min | 0.8 | 72.3 µL/min/mg | IC50 [19]: 1500 nM
10 | Cc1noc(C)c1C(=O)N1CCC(N(c2ccc(C(F)(F)F)cc2)c2cccnc2)CC1 |  |  | > 100000 nM | 2.4 | 3.5 | 21.8 min | 79.3 µL/min/mg | 0.72 | > 100 µg/mL | 12.5 µg/mL (≈ 28.1 µM) | 2100 nM | 11.8 min | 0.89 | 147 µL/min/mg | IC50 [1]: 8 nM and 3.04 nM; IC90 [2]: 47 nM and 8.38 nM; IC50 [18]: 78500 nM
11 | N#Cc1ccccc1N1CCC(N(c2ccc(C(F)(F)F)cc2)c2cccnc2)CC1 | 3 nM | 8 nM |  | 4.4 |  |  |  |  | > 100 µg/mL | < 1.6 µg/mL |  | 12.8 min | 0.88 | 136 µL/min/mg | % inhibition [17]: 60.9%
